The text below walks through data of the supplement of paper PMC10307832.

Holding throughout (assay): relative viability (nuclei count vs DMSO), 5 days (fraction); higher = more cells survive
Compound in the test “Bortezomib + Linsitinib”: CC(C)C[C@H](NC(=O)[C@H](Cc1ccccc1)NC(=O)c1cnccn1)B(O)O [Bortezomib] + C[C@]1(O)C[C@@H](c2nc(-c3ccc4ccc(-c5ccccc5)nc4c3)c3c(N)nccn32)C1 [Linsitinib] (partner 1 µM)
Put shortly:
(§1)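 Dosing by pin tool came one day after lung cancer cell lines were seeded in 1536-well plates, using either one drug or a fixed anchor-drug dose plus five library-drug doses (not always all listed) in √10 steps. After 5 days, nuclei were counted on 4× images. Relative viability is treated-well nuclei count divided by vehicle-well nuclei count, and values are medians of duplicate plates.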

Compound in the test “Obatoclax + Crizotinib”: COC1=CC(c2cc3ccccc3[nH]2)=N/C1=C\c1[nH]c(C)cc1C [Obatoclax] + C[C@@H](Oc1cc(-c2cnn(C3CCNCC3)c2)cnc1N)c1c(Cl)ccc(F)c1Cl [Crizotinib] (partner 1 µM)
In short, it runs like this:
as §1

Compound in the test “Obatoclax + Pictilisib”: COC1=CC(c2cc3ccccc3[nH]2)=N/C1=C\c1[nH]c(C)cc1C [Obatoclax] + CS(=O)(=O)N1CCN(Cc2cc3nc(-c4cccc5[nH]ncc45)nc(N4CCOCC4)c3s2)CC1 [Pictilisib] (partner 1 µM)
Put shortly: as §1

Compound in test [1]: CC1=CC(=NN1)NC2=CC(=NC(=N2)/C=C/C3=CC=CC=C3)N4CCN(CC4)C + Cc1cc(Nc2cc(N3CCN(C)CC3)nc(Sc3ccc(NC(=O)C4CC4)cc3)n2)n[nH]1 [Tozasertib] (partner 0.1 µM)
Put shortly:
as §1

In the case of NCI-H650, the relative viability stood at 0.806 in the test with Bortezomib + Linsitinib (first compound 0.000632 µM); 0.811 in the test with Bortezomib + Linsitinib (first compound 0.002 µM); 0.338 with Bortezomib + Linsitinib (first compound 0.006325 µM); 0.234 with Bortezomib + Linsitinib (first compound 0.02 µM); 0.717 with Obatoclax + Crizotinib (first compound 0.01 µM); 0.668 with Obatoclax + Crizotinib (first compound 0.03162 µM). Further, the relative viability with Obatoclax + Crizotinib (first compound 0.1 µM) worked out at 0.561; in the test with Obatoclax + Crizotinib (first compound 0.3162 µM) it was 0.498; in the test with Obatoclax + Crizotinib (first compound 1 µM), 0.323; with Obatoclax + Pictilisib (first compound 0.01 µM) it was 0.812; with Obatoclax + Pictilisib (first compound 0.03162 µM), 0.722; with Obatoclax + Pictilisib (first compound 0.1 µM) it was 0.597. For the same cell line, the relative viability with Obatoclax + Pictilisib (first compound 0.3162 µM) was 0.462; with Obatoclax + Pictilisib (first compound 1 µM), 0.333; in test [1] (first compound 0.253 µM), 0.822; in test [1] (first compound 0.8 µM) it was 0.603; in test [1] (first compound 2.53 µM), 0.4; in test [1] (first compound 8 µM) it was 0.173.
